The results in this text go back to ChEMBL document CHEMBL3886467 (2016).

The target in this experiment is WD repeat-containing protein 5 (Homo sapiens, UniProt P61964). The experiment is described as follows: Binding Assay: All the FP based experiments were performed in MICROFLUOR 2 Black, "U" Bottom, 96-well Microtiter Plates (ThermoSci.) and FP was measured as mP units in a microplate reader (Tecan Ultra) with excitation at 485 nm and emission at 530 nm. To dilutions of WDR5Δ23 (2.2-0 uM) in 100 ul assay buffer (0.1M Phosphate, 25 mM KCl, 0.01% Triton, pH 6.5) 20 ul of a fixed concentration of the tracer in the assay buffer was added, followed by an addition of 5 ul DMSO to give 125 ul of total volume. Each assay had two controls: blank (without protein and tracer) and tracer only (without protein). The plates were incubated on a shaker at room temperature to reach equilibrium and mP values were measured at the 3 hour time point.

Where only a bound is given, the exact number is not on record here.

For orientation: IC50 means the concentration that gives 50% inhibition. On to `CCC(CC)(NC(=O)C(C)C)C(=O)N[C@H](CCCNC(=N)N)C(=O)NC1(C(=O)NC(c2ccc(Cl)cc2)c2ccc(Cl)cc2)CCCC1`, for which the IC50 was less than 10 µM. The value for `CCNC(=O)[C@H](CCCNC(=N)N)NC(=O)C(CC)(CC)NC(=O)CC` was less than 10 µM; that for `CCC(CC)(NC(=O)C(C)C)C(=O)N[C@@H](CCCNC(=N)N)C(=O)NC1(C(=O)NC(c2ccc(Cl)cc2)c2ccc(Cl)cc2)CCCC1` was less than 3 µM. On to `CCC(CC)(NC(=O)C(C)C)C(=O)N[C@@H](CCCNC(=N)N)C(=O)N(C)C`, for which the IC50 is greater than 30 µM. Under `CC(=O)N[C@@H](C)C(=O)N[C@@H](C(=O)N[C@@H](C)C(N)=O)c1ccc(NC(=N)N)cc1` stands greater than 10 µM; under `CC(=O)N[C@@H](C)C(=O)N[C@H](C(=O)N[C@@H](C)C(N)=O)c1ccc(NC(=N)N)cc1`, greater than 10 µM.
